A word on the IC50: it is the point on the concentration scale where inhibition reaches its midpoint. Low readings indicate inhibition by little substance, high ones a need for much substance.

One assay relates to A549 cells. In words: CCK-8 antiproliferative assay, A549. Format: cell-based. The note with it: Homo sapiens, cell viability (CCK-8), 48 h. How it is done: (§1) To evaluate the anticancer potential of the synthesized compounds, a panel of six human and murine cancer cell lines representing different tissue origins was selected, including MCF-7 (human breast adenocarcinoma), MDA-MB-231 (human triple-negative breast cancer), A549 (human non-small cell lung cancer), HeLa (human cervical cancer), A375 (human melanoma), and B16-F10 (murine melanoma) (Table 2). […] DMSO was used as the vehicle control, and all experiments were performed in triplicate to ensure reproducibility.
(§2) Human breast cancer cells (MCF-7), human lung cancer cells (A549), human cervical cancer cells (HeLa), human triple-negative breast cancer cells (MDA-MB-231), and human malignant melanoma cells (A375) were cultured in DMEM. Mouse melanoma cells (B16F10) were maintained in RPMI-1640 medium. All media were supplemented with 10% fetal bovine serum and 1% penicillin-streptomycin (Life Technologies, Carlsbad, CA, USA) and maintained at 37 °C in a humidified atmosphere with 5% CO2.
(§3) The cytotoxicity of the test compounds was evaluated against MCF-7, A549, HeLa, MDA-MB-231, A375, and B16F10 using the CCK-8 assay. Cells were seeded into 96-well plates at a density of 5000 cells/well. After removing the medium, 100 μL of medium with 0.1% DMSO containing test compounds at different concentrations was added to each well and incubated at 37 °C for another 48 h. The CCK-8 solution was added and incubated for another 1 h, and then, the absorbance was detected with a microplate reader at a wavelength of 450 nm. The IC50 values were calculated by nonlinear regression analysis using GraphPad Prism 8.0.2. All the experiments were repeated at least three times.

Assay [1] relates to MCF-7 cells. The experiment in a line: CCK-8 antiproliferative assay, MCF-7. The format is cell-based. Conditions: Homo sapiens, MCF7; cell viability (CCK-8), 48 h. How it is done:
as §1, §2, §3

In assay [2] the test system is MCF-7 cells. The experiment in a line: Colony formation assay. Format: cell-based, human. Conditions: 24 h treatment. Here is the method: To assess the long-term antiproliferative potential of compound 3g, a colony formation assay was conducted using MCF-7 breast cancer cells.
MCF-7 cells (1000 cells/well) were counted and seeded in 6-well plates. After being cultured for 24 h at 37 °C, the medium was replaced with medium added with compound 3g at the indicated concentration. After 24 h of treatment, the medium was changed to normal. After being cultured for another 10–14 days, the colonies were fixed with 4% paraformaldehyde for 30 min and stained with 0.1% crystal violet for 15 min. Following washing with PBS, the colonies were then photographed and quantified using Image J 1.54g.
Figure 3 Inhibition of MCF-7 Cell Colony Formation by Compound 3g. (A) 3g inhibited the colony formation of MCF-7 cells at different concentrations in a dose-dependent manner. (B) Colony units in the different groups after treatment with 3g. Number of colonies was counted after treating MCF-7 cells with the indicated concentration of compound 3g for 24 h (n = 3, * p < 0.05, ** p < 0.01 vs. DMSO control, one-way ANOVA).

Assay [3] relates to MCF-7 cells. The experiment in a line: Transwell migration assay. Format: cell-based, human. The note with it: 24 h exposure, dose-dependent. Here is the method:
The impact of compound 3g on MCF-7 cell migration was assessed using wound healing and transwell migration assays.
MCF-7 cells were seeded into six-well culture plates at a density of 5 × 10^5 cells per well for 24 h. After treatment with compounds 3g at different concentrations for 24 h, cells were harvested and inoculated on transwell filters ([…] pore size, Millipore, Billerica, MA, USA) in 24-well culture plates. The cells in the top chamber were cultured in the FBS-free medium, and those in the bottom chamber were cultured in the medium containing 10% FBS. The plates were cultivated for an additional 48 h, and the cells that had migrated to the bottom of the top chambers were fixed with 4% paraformaldehyde and then stained with 0.1% crystal violet. Images of migrated cells were obtained using an inverted microscope (Olympus IX73, Olympus Corporation, Tokyo, Japan).
Figure 4 Effect of compound 3g on the migration of MCF-7 breast cancer cells. (A) 3g inhibited the migration of MCF-7 cells at different concentrations in a dose-dependent manner. Representative images of wound healing were captured by an inverted microscope at 0 h and 24 h treatment. Scale bar = 200 μm. (B) Wound closure percentages in the different groups after treatment with 3g for 24 h. (C) Results of the transwell migration assay. […]

Assay [4] addresses T1, Porcine brain tubulin protein (Sus scrofa, UniProt P02554).
T1 construct: Porcine brain tubulin protein was dissolved in EM buffer; from tissue; host or cells: porcine brain
The experiment in a line: In vitro tubulin polymerization assay. The format is biochemical. How it is done: The ability of compound 3g to disrupt microtubule dynamics was assessed using an in vitro tubulin polymerization assay.
Porcine brain tubulin protein was dissolved in EM buffer containing 5% glycerol (80 mM PIPES, 2 mM GTP, 2 mM MgCl2, and 0.5 mM EGTA, pH 6.9). Compounds were diluted in EM buffer to final concentrations of 50, 25, 10, 5, and 2.5 μM and added to a pre-warmed 384-well plate, followed by pre-incubation at 37 °C. Subsequently, 14 μL of the tubulin-GTP mixture was added to each well containing the test compounds. Tubulin polymerization was monitored by measuring absorbance at 340 nm every minute for 60 min. […] Each assay was performed in triplicate.
Absorbance at 340 nm was determined every 1 min.

In the next assay the test system is HeLa cells. In words: CCK-8 antiproliferative assay, HeLa. Format: cell-based. Conditions: Homo sapiens, cell viability (CCK-8), 48 h. Here is the method: as §1, §2, §3
A further assay relates to B16-F10 cells. In words: CCK-8 antiproliferative assay, B16-F10. Conditions: Mus musculus, cell viability (CCK-8), 48 h. Format: cell-based, murine. Here is the method:
as §1, §2, §3
For orientation: Tetrazolium assays rely on reduction of a dye to a coloured formazan, in cell work by metabolically active cells.

A further assay deals with A375 cells. The experiment in a line: CCK-8 antiproliferative assay, A375. The format is cell-based. The note with it: Homo sapiens, A-375; cell viability (CCK-8), 48 h. How it is done:
as §1, §2, §3

T1 sequence (P02554 whole entry): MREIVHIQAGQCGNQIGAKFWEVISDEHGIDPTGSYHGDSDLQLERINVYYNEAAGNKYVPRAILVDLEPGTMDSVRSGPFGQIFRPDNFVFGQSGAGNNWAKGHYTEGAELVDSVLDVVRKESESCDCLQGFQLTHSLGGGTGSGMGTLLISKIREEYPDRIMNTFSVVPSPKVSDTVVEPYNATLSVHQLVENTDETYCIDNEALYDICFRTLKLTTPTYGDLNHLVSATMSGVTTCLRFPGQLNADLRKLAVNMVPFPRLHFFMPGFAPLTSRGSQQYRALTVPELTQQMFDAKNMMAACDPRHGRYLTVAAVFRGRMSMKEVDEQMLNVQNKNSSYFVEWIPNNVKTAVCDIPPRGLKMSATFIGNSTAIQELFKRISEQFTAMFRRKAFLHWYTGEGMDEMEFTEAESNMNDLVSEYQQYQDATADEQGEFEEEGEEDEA
T1 sequence (P02550 whole entry partner): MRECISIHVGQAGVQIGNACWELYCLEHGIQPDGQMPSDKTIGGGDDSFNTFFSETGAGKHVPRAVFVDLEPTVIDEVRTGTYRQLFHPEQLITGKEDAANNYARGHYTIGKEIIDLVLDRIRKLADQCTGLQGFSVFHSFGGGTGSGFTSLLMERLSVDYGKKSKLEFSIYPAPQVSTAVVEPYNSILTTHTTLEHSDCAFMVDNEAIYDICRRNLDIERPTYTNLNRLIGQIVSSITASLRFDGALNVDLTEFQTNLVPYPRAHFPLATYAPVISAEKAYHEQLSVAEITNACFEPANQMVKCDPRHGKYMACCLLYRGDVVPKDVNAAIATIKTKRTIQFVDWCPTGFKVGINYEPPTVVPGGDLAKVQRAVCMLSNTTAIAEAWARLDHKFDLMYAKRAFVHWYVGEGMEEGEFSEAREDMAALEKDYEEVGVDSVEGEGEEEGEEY

On to `COc1cc(-n2ccc3ccc(-c4ccc(C)c(C#N)c4)cc32)cc(OC)c1OC` [3g, 2-methyl-5-(1-(3,4,5-trimethoxyphenyl)-1H-indol-6-yl)benzonitrile], for which the IC50 turned out to be 6300 ± 300 nM in the assay on A549 cells; 2940 ± 560 nM in the assay with MCF-7 cells [1]; 6100 ± 310 nM with HeLa cells; 1690 ± 410 nM in the assay on B16-F10 cells; 570 ± 10 nM with A375 cells. Moreover, the “clonogenic survival / colony formation” value with MCF-7 cells [2] (0.1 μM) is “moderate reduction”. The figures for the colony formation result with MCF-7 cells [2] (1 μM) and in the assay on MCF-7 cells [2] (10 μM) were “progressively greater inhibition” and “near-complete suppression”, respectively. In the assay on MCF-7 cells [3], the “number of cells traversing the membrane” value is “significant reduction”. The “effect on tubulin assembly” value in assay [4] (50 μM) is “markedly suppressed tubulin assembly”. The “effect on tubulin polymerization” value in assay [4] (2.5–50 μM, absorbance at 340 nm) is recorded as “inhibited tubulin polymerization in a concentration-dependent manner”.

The values above are taken from article PMC12693167, “Design, Synthesis and Anticancer Activity of 6-Substituted-1-(3,4,5-trimethoxyphenyl)-1H-indole Against Tubulin Polymerisation” (Molecules, 2025).
